# Experiments:
# IL-10 = test: Measurement of human IL-10 amount in culture supernatant of MT2 cells with ELISA kit (Test 1); format: cell-based; conditions: 48±2 hours; for activity at 10 µM / activity at 20 µM / activity at 12.5 µM / activity at 25 µM: Homo sapiens, 48 h, DMSO control = 100%, read-out: % against control (IL-10 production)
# Protocol: (§1) MT2 cells from human adult T-cell leukemia were used. Leukemia cells of human adult T-cell leukemia (ATL) express CD4 and CD25 molecules on the cell surface and are considered to be derived from Treg (Chen S. et al., International Immunology 18:269-277 (2005)). MT2 cells were used in experiments as models of Treg since the cells are CD4 positive, CD25 positive, and FOXP3 positive celles derived from ATL.
# (§2) The example compounds (compounds 1-17) of the present invention were dissolved in dimethylsulfoxide (DMSO) to prepare each 50 mmol/L solution, which was preserved at −80° C.
# The amount of IL-10 production in the control and the example compounds was measured to evaluate the inhibitory effect on IL-10 production of the example compounds of the present invention.
# (1) MT2 cells are suspended in RPMI1640 medium (hereinafter referred to as “the medium”) supplemented with 10% fetal calf serum (FCS) and 1% penicillin/streptomycin (P/S) to give 3×10^5 cells/mL suspension, and 1 mL of the suspension was added to each well of a 24-well plate. […] The cell cultures were incubated 48±2 hours in a CO2 incubator (under a condition of 37° C., 5 CO2). DMSO was diluted 50-fold with the medium, and 20 μL of the diluent was added to the well to make a control of compounds 1-7. In addition, DMSO was diluted 50-fold with the medium, and 25.0 μL of the diluent was added to the well to make a control of compounds 8-17.
# (2) A piece of the cell culture was sampled to count cells with a cell counter (BIO RAD TC-20). The cell culture was centrifuged at 300×g for 5 minutes and the supernatant was collected as a sample for IL-10 measurement. When not measured within a day, it was preserved in a freezer at −80° C.
# (3) Human IL-10 ELISA kit II (BD OptEIA) was used on the measurement. The kit contains wells treated with anti-IL-10 antibody (8 wells/strip), Standard/Sample diluent, vials comprising freeze-dried IL-10 Standard (1280 pg/vial), ELISA diluent, 20× Wash Buffer, Detection antibody, Enzyme Concentrate, TMB One Step Substrate Reagent, Stop Solution, and cover sheets.
# (4) To a vial containing IL-10 Standard was added […] Standard/Sample diluent, and the vial was stood at room temperature for 15 minutes to be dissolved (Standard sample stock solution 1L-10 concentration: 500 pg/mL).
# (5) Standard samples in each concentration for making a standard curve were prepared as follows. Firstly, to 300 μL of the medium was added 300 μL of the standard sample stock solution, and the mixture was mixed with a Voltex mixer (250 pg/mL). Next, 300 μL of the standard sample of 250 pg/mL was added to 300 μL of the medium and the mixture was mixed with a Voltex mixer (125 pg/mL). The same procedures were successively repeated to prepare standard solutions of 62.5, 31.25, 15.625, and 7.8125 pg/mL. As 0 pg/mL standard solution, the medium was used.
# (6) A kit containing wells treated with anti-IL-10 antibody (8 wells/strip) was warmed to room temperature and 50 μL of ELISA diluent in the kit was added into each well.
# (7) To each well containing ELISA diluent, 100 μL of the standard samples of each concentration and each test sample (diluded 50-100 fold with medium) were added.
# (8) After the wells were sealed with a cover sheet and gently tapped, they were left at room temperature for 2 hours.
# (9) 20× Wash Buffer was diluted 20-fold with water to prepare 1× Wash Buffer.
# (10) After the reaction was done for 2 hours, the solutions in each well were aspirated and washed 5 times with 300 μL of 1× Wash Buffer.
# (11) After Enzyme Concentrate (4 μL per 8 wells) was added to Detection antibody (1 ml per 8 wells), the solution was mixed by a Vortex mixer and then a necessary amount of Working Detector was prepared.
# (12) 100 μL of Working Detector was added to each well, covered with a cover sheet, and the wells were left at room temperature for an hour.
# (13) After the reaction was done for an hour, the solutions in wells were aspirated and washed 7 times with 300 μL of 1× Wash Buffer. […]
# CTLA-4 = test: Intracellular staining of MT2 cells with fluorescence-labeled anti-CTLA-4 antibody and measurement by flow cytometry; format: cell-based, human; conditions: 48±2 hours; for Peak MFI of CTLA-4: isotype IgG2a subtracted, average of n=3
# Protocol: as §1, §2
# (1) MT2 cells were suspended in RPMI1640 medium (hereinafter referred to as “the medium”) supplemented with 10% fetal calf serum (FCS) and 1° penicillin/streptomycin (P/S) to give 3×10^5 cells/mL suspension and 3 mL of the suspension was added to each well of a 6-well plate. To each well were added 0.6 or 1.2 μL of the test compound solutions (compounds 1, 2, and 4), 0.75 or 1.5 μL of the test compound solution (compound 9), and 1.5 μL of the test compound solutions (compounds 8 and 10-17), and the cell cultures were incubated in a CO2 gas incubator (under 37° C., 5% CO2) and cultured for 48±2 hours. As a control of compound 1, 2 and 4, only 1.2 μL of DMSO was added to the well. In addition, as a control of compound 8-17, only 1.5 μL of DMSO was added to the well.
# (2) A piece of the cell culture was sampled to count cells with a cell counter (BIO RAD TC-20). The cell culture was centrifuged at 300×g for 5 min, and the supernatant was removed. The residue was suspended in phosphate buffered saline (supplemented with 1% bovine serum albumin (BSA), without calcium and magnesium) (1% BSA/PBS) to adjust the concentration of cells to 5-10×10^6 cells/mL.
# (3) To 5 ml tube, each 50 μL of the cell suspension was added.
# (4) Foxp3/Transcription Factor Fix/Perm Concentrate (4×) (Cat. No. TNB-1020-L050) (Solution A) in FOXP3/Transcription Factor Staining kit (TONBO biosciences) was diluted with Foxp3/Transcription Factor Fix/Perm Diluent (1×) (Cat. No. TNB-1022-L160) (for dilution of Solution A) to prepare 1× Solution A.
# (5) 1 mL of 1× Solution A was added to each tube and mixed by gentle pipetting. Subsequently, it was left at room temperature for 30 min, centrifuged at 300×g for […], and the supernatant was discarded.
# (6) Flow Cytometry Perm Buffer (10×) (Cat. No. TNB-1213-L150) (Solution B) in the kit was diluted 10-fold with water to prepare 1× Solution B.
# (7) 2 mL of 1× Solution B was added to the tube and centrifuged at 300×g for 5 min. The supernatant was discarded. 2 μL of 2% normal mouse serum/PBS was added to the tube and the tube was gently pipetted. Subsequently, it was left at room temperature for 15 min.
# (8) In the CTLA-4 measurement, 20 μL of anti-CTLA-4 antibody (BECKMAN COULTER, CD152-PE clone BN13I M2282) or mouse IgG2a (BECKMAN COULTER, IgG2a (Mouse)-PE A09142) for the control was added to the tube and the tube was gently stirred. Subsequently, it was left in the dark at room temperature for 30 min, and 2 mL of the 1× Solution B was added thereto, the mixture was centrifuged at 300×g for 5 min, and the supernatant was discarded. 2 mL of the 1× Solution B was added to the tube again, the mixture was centrifuged at 300×g for 5 min, and the supernatant was discarded.
# (9) Within 2 hours after the solution in the tube was suspended in 0.5 mL of 1% BSA/PBS, and the fluorescence at 577 nm was measured with 488 nm excitation with a flow cytometer (Sony: Cell Sorter SH800). The results were analyzed with software, FlowJo (Tree Star Inc.). The mean peak fluorescence intensity (MFI) of CTLA-4 and mean peak fluorescence intensity of isotype control IgG2a were calculated from histgrams of the measured fluorescence intensity and number of cells, and mean fluorescence intensity of IgG2a was subtracted from that of CTLA-4. Experiments were conducted in n=3, and the average values were shown.
# [1] = Homo sapiens, 48 h, 25.0 μmol/L, DMSO control = 100%, read-out: % against control (CTLA-4 expression)
SMILES,IL-10 (ng/10^6 cells) ± standard deviate (n = 3) (IL-10; 10 μmol/L) [ng/10^6 cells],IL-10 (ng/10^6 cells) ± standard deviate (n = 3) (IL-10; 20 μmol/L) [ng/10^6 cells],activity at 10 µM (IL-10; 10 μmol/L) [%],activity at 20 µM (IL-10; 20 μmol/L) [%],Peak MFI of CTLA-4 (CTLA-4; 25.0 μmol/L),activity at 25 µM (CTLA-4; [1]) [%],IL-10 (ng/10^6 cells) ± standard deviate (n = 3) (IL-10; 12.5 μmol/L) [ng/10^6 cells],IL-10 (ng/10^6 cells) ± standard deviate (n = 3) (IL-10; 25.0 μmol/L) [ng/10^6 cells],activity at 12.5 µM (IL-10; 12.5 μmol/L) [%],activity at 25 µM (IL-10; 25.0 μmol/L) [%],Peak MFI of CTLA-4 (CTLA-4; 10 μmol/L),Peak MFI of CTLA-4 (CTLA-4; 20 μmol/L),"activity at 10 µM (CTLA-4; Homo sapiens, 48 h, 10 μmol/L, DMSO control = 100%, read-out: % against control (CTLA-4 expression)) [%]","activity at 20 µM (CTLA-4; Homo sapiens, 48 h, 20 μmol/L, DMSO control = 100%, read-out: % against control (CTLA-4 expression)) [%]"
COC(=O)C1=CN2CCc3c([nH]c4ccccc34)[C@@H]2[C@@]2(O)C(CO)=CC[C@H]12 [Compound 5],19.7 ± 0.2,14.9 ± 0.4,106,80.5,,,,,,,,,,
COC(=O)C1=CN2CCc3c([nH]c4ccc(C)cc34)[C@@H]2[C@@H]2[C@@H](C)[C@@H](O)C[C@H]12 [Compound 14],,,,,450,53,7.4 ± 0.3,4.3 ± 1.0,67.7,39.2,,,,
COC(=O)C1=CN2CCc3c([nH]c4cc(OC)ccc34)[C@@H]2[C@@H]2[C@@H](C)[C@@H](O)C[C@H]12 [Compound 8],,,,,361,50,15.5 ± 1.2,7.9 ± 0.4,94.6,48.4,,,,
COC(=O)C1=CN2CCc3c([nH]c4ccccc34)[C@H]2[C@@H]2C(CO)=CC[C@H]12 [Compound 4],8.0 ± 0.2,4.3 ± 0.5,42.9,23,,,,,,,796.0,621.0,93.4,72.9
COC(=O)C1=CN2CCc3c([nH]c4c(C)cccc34)[C@@H]2[C@@H]2[C@@H](C)[C@@H](O)C[C@H]12 [Compound 11],,,,,602,59.5,7.4 ± 0.2,5.6 ± 0.3,78.2,55.4,,,,
COC(=O)C1=CN2CCc3c([nH]c4c(F)cccc34)[C@@H]2[C@@H]2[C@@H](C)[C@@H](O)C[C@H]12 [Compound 17],,,,,339,45,7.0 ± 0.2,6.0 ± 0.2,64.2,54.2,,,,
COC(=O)C1=CN(CCc2c[nH]c3ccccc23)C(O)[C@H]2[C@@H]1C=CC2(O)CO (stereo partly drawn) [Compound 6],17.6 ± 0.7,15.2 ± 0.4,95.2,81.8,,,,,,,,,,
CC1C(C=O)=C2CCOC(=O)C2=CN1CCc1c[nH]c2ccccc12 (stereo not drawn) [Compound 7],17.9 ± 0.6,15.4 ± 0.4,96.5,83.1,,,,,,,,,,
COC(=O)C1=CN2CCc3c([nH]c4ccc(Br)cc34)[C@@H]2[C@@H]2[C@@H](C)[C@@H](O)C[C@H]12 [Compound 13],,,,,775,91.6,7.7 ± 0.6,4.2 ± 0.2,81.2,44,,,,
COC(=O)C1=CN2CCc3c([nH]c4ccc(O)cc34)[C@@H]2[C@@H]2[C@@H](C)[C@@H](O)C[C@H]12 [Compound 16],,,,,529,70.3,9.8 ± 0.3,8.6 ± 0.1,88.9,77.9,,,,
COC(=O)C1=CN(CCc2c[nH]c3ccccc23)C=C2[C@@H]1CC(OC)O[C@H]2C (stereo partly drawn) [Compound 3],14.8 ± 0.3,11.8 ± 0.3,80,63.7,,,,,,,,,,
